Assay results from patent US10406169B2, “Methods of monitoring estriol therapy” (The Regents of the University of California, priority 2015, dated 2019).

System: relapsing-remitting multiple sclerosis
Assay: Confirmed relapses (annualized relapse rate, time to first relapse)
Type: in vivo, human
Conditions: for Annualized relapse rate in 12 months, Rate (95% CI) / Annualized relapse rate in 24 months, Rate (95% CI): negative binomial regression
Protocol: The primary efficacy end point was the annualized relapse rate. A relapse was defined as the appearance of new neurological symptoms or the worsening of pre-existing symptoms, lasting at least 48 hours in a subject who had been neurologically stable or improving in the previous 30 days, accompanied by an objective change in a neurological examination (i.e., a worsening of 0.5 or more points on the EDSS or a worsening by 1.0 or more points on the pyramidal, cerebellar, brainstem or visual functional system scores, not due to fatigue alone and not associated with fever or infection). […] Both treating and examining physicians were unaware of study group assignments. The standard treatment for relapse was a 3-5 day course of glucocorticoids at the discretion of the treating neurologist.
Intention-to-treat analyses were carried out for all end points. […] To control the overall type I error, a sequential testing procedure was applied. […] Consistent with a phase 2 study using a clinical outcome, a p-value<0.10 was considered statistically significant.
For the time to first relapse analysis, Kaplan Meier curves and log-rank test were used to estimate and compare the relapse free probabilities of the two treatment groups. Cox proportional hazards model was used to compare the time to relapse free probabilities between two groups adjusting for covariates. […] The random effect of subject is included in the model to account for within subject correlation.
For the primary endpoint, the main analysis seeks to compare the relapse event rate between treatment groups based on the negative binomial regression. As a sensitivity analysis, recurrent events analysis was performed based on Andersen Gill model to compare the relapse hazard rate between treatment groups.

## glatiramer acetate [Placebo + GA]
Kaplan-Meier
  Proportion of pts with relapse at 12 months % (95% CI): 33.1 (23.5-45.2) %
  Proportion of pts with relapse at 24 months % (95% CI): 42.9 (32.1-55.5) %
  Annualized relapse rate in 12 months, Rate (95% CI): 0.48 (0.33-0.69)
  Annualized relapse rate in 24 months, Rate (95% CI): 0.37 (0.25-0.53)
Listed as Placebo+GA
  Annualized relapse rate in 12 months, Rate (95% CI): 0.48
  Annualized relapse rate in 24 months, Rate (95% CI): 0.37
